Here are results for eight molecules from patent US5968513A (priority 1996, dated 1999).

In the assay the test system is Hematopoietic progenitor cells from normal bone marrow and cord blood. The assay can be described thus: Clonogenic (colony) assays of hematopoietic progenitor cells in methylcellulose (CFU-MIX, BFU-e, CFU-GM). The format is cell-based, human. The conditions noted are these: hCG preparations 200 IU/ml, subunits and peptides 100 μg/ml, 10 days, aggregates of more than 50 cells counted. The source says:
Hematopoietic progenitor cells (2×10^5 cell/ml) were isolated from normal bone marrow and cord blood and seeded in methylcellulose. […] Aggregates containing more than 50 cells after 10 days of culture were counted as colonies.

Regarding “α-hCG peptide 88-92: α-hCG peptide of amino acids 88-92 (YYHKS; UniProt P01215 112-116, looked up, fragment)”, the “growth of hematopoietic progenitors (pro-hematopoietic activity, colony numbers)” value (“growth of hematopoietic progenitors” for short) is recorded as “little or no effects”.

As for “β-hCG peptide 7-40: β-hCG peptide of amino acids 7-40 (PRCRPINATLAVEKEGCPVCITVNTTICAGYCPT; UniProt P0DN86 27-60, looked up, fragment)”, the “growth of hematopoietic progenitors” value was “little or no effects”.

For the molecule “β-hCG peptide 34-49: β-hCG peptide of amino acids 34-49 (CAGYCPTMTRVLQGVL; UniProt P0DN86 54-69, looked up, fragment)”, the “growth of hematopoietic progenitors” value is “little or no effects”.

Consider “β-hCG peptide 38-57: β-hCG peptide of amino acids 38-57 (CPTMTRVLQGVLPALPQVVC; UniProt P0DN86 58-77, looked up, fragment)”, for which the “growth of hematopoietic progenitors” value was “little or no effects”.

For the molecule “β-hCG peptide 57-93: β-hCG peptide of amino acids 57-93 (CNYRDVRFESIRLPGCPRGVNPVVSYAVALSCQCALC; UniProt P0DN86 77-113, looked up, fragment)”, the “growth of hematopoietic progenitors” value is recorded as “little or no effects”.

For “β-hCG peptide 74-95: β-hCG peptide of amino acids 74-95”, the “growth of hematopoietic progenitors” value is “little or no effects”.

Consider “β-hCG peptide 100-110: β-hCG peptide of amino acids 100-110 (CGGPKDHPLTC; UniProt P0DN86 120-130, looked up, fragment)”, for which the “growth of hematopoietic progenitors” value was “little or no effects”.

B1: partially purified native β-chain: crude preparation of native β-hCG (protein, UniProt P0DN86 21-165, looked up)
Choriogonadotropin subunit …: SKEPLRPRCRPINATLAVEKEGCPVCITVNTTICAGYCPTMTRVLQGVLPALPQVVCNYRDVRFESIRLPGCPRGVNPVVSYAVALSCQCALCRRSTTDCGGPKDHPLTCDDPRFQDSSSSKAPPPSLPSPSRLPGPSDTPILPQ
modifications: native, partially purified
notes: crude preparation of native β-hCG
For the molecule B1, the “growth of hematopoietic progenitors” value is “directly promoted”. Besides, the “growth of hematopoietic progenitors” value (listed as whole β-chain) is recorded as “considerable pro-hematopoietic activity”.
